Patent publication US20110195898A1, “TREATMENT OF ALZHEIMER'S DISEASE AND MILD COGNITIVE IMPAIRMENT USING GNRH-I ANALOGS AND ONE OR MORE OF ACETYLCHOLINESTERASE INHIBITORS AND NMDA RECEPTOR ANTAGONISTS” (Voyager Pharmaceutical Corporation, priority 2004, published 2011)
Structures can show the parent of a compound that is named as a salt.

Columns and labels:
[1] = in vivo; cited from earlier work
[2] = test system: mild-to-moderate Alzheimer's disease patients; settings: cited from earlier work
[3] = test system: glioblastoma cell lines (LN229, U87, U118MG); assay: Cell growth assay (WST-8, 96 well), glioblastoma cell lines; format: cell-based; settings: 10^-5 M (12.25 μg/ml) vs 0 M control, WST-8, optical density 450 nm, FIG. 5
Protocol: (§1) For cell growth assays in a 96 well format, a specific number of cells were plated (about 1000 cells for each line). All cell lines were plated in their respective growth media (supplemented with either 1% regular fetal bovine serum, 1% charcoal/dextran-stripped fetal bovine serum or 0.25% Albumax™ (Invitrogen Corp., Grand Island N.Y.)) and allowed to settle for 24 hours. Leuprolide treatments were commenced […]. A 10 mM (12.25 mg/ml) solution of leuprolide acetate salt in phosphate buffered saline was prepared and diluted appropriately to obtain the desired final concentrations. Treatment concentrations were 0 M (control) and 10^−5 M (shown as 1.00E-5, 12.25 μg/ml). The number of cells in each group was measured by incubating cells with WST-8 (2-(2-methoxy-4-nitrophenyl)-3-(4-nitrophenyl)-5-(2,4-disulfophenyl)-2H-tetrazolium, monosodium salt) which produces a water soluble formazan dye that was detected by measuring optical density (at 450 nm) using a μQuant™ Universal Microplate Spectrophotometer (Bio-Tek® Instruments, Inc., Winooski, Vt.).

testosterone suppression = settings: Fowler et al. 2000; cited from earlier work
men with prostate cancer = settings: daily injections for up to two years, Lupron Depot package insert; cited from earlier work
[4] = test system: women diagnosed with mild-to-moderate Alzheimer's Disease; assay: ADAS-Cog test, 48-week double-blind placebo-controlled clinical trial; format: in vivo, human
Protocol: During 2004-2005, a 48-week, double-blind placebo-controlled dose ranging study was conducted in 108 women diagnosed with mild-to-moderate Alzheimer's Disease. The study inclusion criteria included a requirement that each patient either (a) is taking a cholinesterase inhibitor, began taking it at least 90 days prior to the trial and is likely to continue taking it at the same dosage level throughout the trial; or (b) has never taken a cholinesterase inhibitor or has stopped taking at least 90 days prior to the trial and is likely to remain off cholinesterase inhibitors throughout the trial. The patients in the subgroup taking cholinesterase inhibitors were in turn divided into two groups for analysis purposes:
Group 1 patients were administered an injectable 22.5 mg formulation of leuprolide acetate in combination with a stable dose of acetylcholinesterase inhibitors (AChEI). At the completion of the study, Group 1 included 24 subjects. Group 2 patients were administered a placebo injection (saline) in combination with a stable dose of AChEI. […]
During the Phase II study, the administrations of leuprolide acetate and placebo occurred at weeks 0, 12, 24, 36, and 48 of the study, whereas doses of AChE inhibitors were taken as prescribed by a physician (determined as the proper beneficial level) to each specific patient before enrollment. […]

[5] = test system: neuroblastoma cell lines (DAOY, SKNMC, CCF-SttG1); assay: Cell growth assay (WST-8, 96 well), neuroblastoma cell lines; format: cell-based; settings: 10^-5 M (12.25 μg/ml) vs 0 M control, WST-8, optical density 450 nm, FIG. 5
Protocol: as §1

In the case of `CC12CC3CC(C)(C1)CC(N)(C3)C2` [Memantine], the “dose excreted in the urine unchanged” value [1] is given as “up to 82%”.

In the case of `COc1cc2c(cc1OC)C(=O)C(CC1CCN(Cc3ccccc3)CC1)C2` (stereo not drawn) [donepezil, Donepezil], the “decline on ADAS-cog after 52 weeks of treatment” value ([2]; Wilcock et al., one year trial comparing two AChEIs) is given as 3.43±0.8 points.

In the case of `CCNC(=O)[C@@H]1CCCN1C(=O)[C@H](CCCNC(=N)N)NC(=O)[C@H](CC(C)C)NC(=O)[C@@H](CC(C)C)NC(=O)[C@H](Cc1ccc(O)cc1)NC(=O)[C@H](CO)NC(=O)[C@H](Cc1c[nH]c2ccccc12)NC(=O)[C@H](Cc1c[nH]cn1)NC(=O)[C@@H]1CCC(=O)N1` [leuprolide acetate, 5-oxo-L-prolyl-L-histidyl-L-tryptophyl-L-seryl-L-tyrosyl-D-leucyl-L-leucyl-L-arginyl-N-ethyl-L-prolinamide acetate (salt)], the “cell growth of glioblastoma cell lines” value [3] is given as “inhibits cell growth”, the “cell growth of glioblastoma cell lines” value ([3]; listed as Leuprolide) is given as “very effective at slowing the growth” and the “serum concentration considered adequate for testosterone suppression” value (testosterone suppression) is given as “less than 1 ng/ml”. The “adverse effects of 20 mg per day versus 1 mg per day” value (men with prostate cancer) was “did not result in any adverse effects different from what was seen with the 1 mg dose”, the “cognitive decline as percent of expected no-treatment decline” value ([4]; 100% decline = 5.6 ADAS-cog points in a year (literature placebo)) was 84% and the “decline on ADAS-cog (mean change from baseline)” value ([4]; females, over 48 weeks, stable dose of AChEI, leuprolide acetate (Lupron Depot) 22.5 mg at 12-week intervals where given) was 4.68 points. The “cell growth of neuroblastoma cell lines” value [5] was “inhibits cell growth” and the “cell growth of neuroblastoma cell lines” value ([5]; listed as Leuprolide) was “very effective at slowing the growth”.

In the case of `NCCCS(=O)(=O)O` [tramiprosate], the “overall 18 month decline on ADAS-cog, mild patients” value ([2]; ongoing trial, overall decline, mild patients) is given as 5.5 points and the “overall 18 month decline on ADAS-cog, moderate patients” value ([2]; ongoing trial, overall decline, moderate patients) is given as 6.3 points.
